Experimental data published in PMC4264453 (British Journal of Cancer, 2014).
Structures can show the parent of a compound that is named as a salt.

What was measured:
[1] = system: patients with advanced solid tumours; type: in vivo, human; details: days 1, 8 with cisplatin 75 mg m^−2 day 1, 21-day cycle
[2] = Eribulin plasma pharmacokinetics; type: in vivo, human; details: for AUC(0-inf) / clearance / Cmax / half-life / Vd: human, plasma, intravenous; for AUC(0-inf): AUC0-inf; for clearance: CL; for Vd: Vss
[3] = system: patients; details: ref Synold et al, 2005, cited from earlier work
[4] = system: patients with advanced solid malignancies; details: ref Goel et al, 2009; cited from earlier work
[5] = system: patients with advanced solid tumours; details: 4 mg m^−2 cohort; ref Tan et al, 2009; cited from earlier work
[6] = no reference given; cited from earlier work
[7] = 60 mg, Dose level 3: eribulin mesylate 1.2 with cisplatin 60 mg m^−2, first dose, N=4, mean (s.d.)
[8] = 60 mg, Dose level 5: eribulin mesylate 1.4 with cisplatin 60 mg m^−2, first dose, N=6, mean (s.d.)
[9] = 75 mg, Dose level 6: eribulin mesylate 1.2 with cisplatin 75 mg m^−2, first dose, N=3, mean (s.d.)

For `C=C1C[C@@H]2CC[C@@]34C[C@H]5O[C@H]6[C@@H](O3)[C@H]3O[C@H](CC[C@@H]3O[C@H]6[C@H]5O4)CC(=O)C[C@@H]3[C@@H](OC)[C@@H](C[C@H](O)CN)O[C@H]3C[C@H]3O[C@@H](CC[C@@H]1O2)C[C@@H](C)C3=C` [Eribulin mesylate], the “MTD and recommended phase II dose of eribulin mesylate in combination with cisplatin” value [1] was 1.2 mg m^−2, the “effect of cisplatin co-administration on the disposition of eribulin mesylate” value ([2]; compared to previously reported single agent data (Goel et al, 2009; Tan et al, 2009)) was “no apparent effect” and the “dose proportionality of mean Cmax and AUC0-inf” value ([2]; eribulin 1.2–1.4 mg m^−2 with cisplatin) was “did not increase in a dose-proportional manner”. For the same compound, the AUC(0-inf) [2, 7] was 1500 ng·h/mL, the AUC(0-inf) [2, 8] was 1100 ng·h/mL and the clearance [2, 7] was 26.7 mL/min. It also gave a clearance [2, 8] of 38.3 mL/min, a Cmax [2, 7] of 466 ng/mL and a Cmax [2, 8] of 508 ng/mL. It also gave a half-life ([2]; 60 mg, T1/2, Dose level 3: eribulin mesylate 1.2 with cisplatin 60 mg m^−2, first dose, N=4, mean (s.d.)) of 40.8 h, a half-life ([2]; 60 mg, T1/2, Dose level 5: eribulin mesylate 1.4 with cisplatin 60 mg m^−2, first dose, N=6, mean (s.d.)) of 36.5 h and a Vd [2, 7] of 51.4 L. For the same compound, the Vd [2, 8] was 77.7 L, the AUC(0-inf) [2, 9] was 1030 ng·h/mL and the clearance [2, 9] was 36.7 mL/min. It also gave a Cmax [2, 9] of 695 ng/mL, a half-life ([2]; 75 mg, T1/2, Dose level 6: eribulin mesylate 1.2 with cisplatin 75 mg m^−2, first dose, N=3, mean (s.d.)) of 35.5 h and a Vd [2, 9] of 68.4 L. The minor responses ([3]; lung, breast, and thyroid) was “three”, the “median duration of stable disease” value ([3]; range 2–14 months) was 4 months and the “patients exhibiting stable disease as the best response” value [3] was 12 patients. The “dose at which grade 3 toxicity first occurred” value ([3]; single agent) was 0.5 mg m^−2, the “principal DLT” value [4] was “neutropenia” and the “patients experiencing febrile neutropenia (dominant DLT)” value [5] was “all three patients”. For the same compound, the “administered dose recovered in urine” value [6] was under 8%.
